Test results: patent US12281122B1, “PI3K inhibitors” (Cogent Biosciences, Inc., priority 2023, dated 2025)

Tests used:
[1] = system: SKBR3 (PI3Kα-Wild Type) cell line; experiment: HTRF phospho-AKT(S473) cell assay in SKBR3 cells; assay type: cell-based, human; conditions: Homo sapiens, SK-BR-3; SKBR3 (PI3Kα-Wild Type) cells, HTRF phospho-AKT(S473), 2 hours compound incubation, PDGF-BB stimulated
In short: (§1)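 T47D (PI3Kα-H1047R; RPMI, 10% FBS, insulin) and SKBR3 (wild-type PI3Kα; McCoy's 5A, 10% FBS) cells treated 2 h at 37 °C with 12-point 1:3 dilutions, top 5 μM and 10 μM respectively, ≤0.5% DMSO. SKBR3 stimulated with 70 ng/ml PDGF-BB for the last 15 min; lysate pAKT(S473) by HTRF, IC50 from curves.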

[2] = system: T47D (PI3Kα-H1047R) cell line; experiment: HTRF phospho-AKT(S473) cell assay in T47D cells; assay type: cell-based, human; conditions: Homo sapiens; T47D (PI3Kα-H1047R) cells, HTRF phospho-AKT(S473), 2 hours compound incubation
In short: as §1

Row | IC50 [1] [nM] | IC50 [2] [nM] | Structure (SMILES)
1 | 1000 to 5000 | < 250 | Cc1cc([C@@H](C)Nc2ccc(Cl)nc2C(=O)NS(C)(=O)=O)c2nc(N3CCN(c4ccccc4)CC3)n(C)c(=O)c2c1 [Compound 183, (R)-6-chloro-3-((1-(3,6-dimethyl-4-oxo-2-(4-phenylpiperazin-1-yl)-3,4-dihydroquinazolin-8-yl)ethyl)amino)-N-(methylsulfonyl) picolinamide]
2 | 1000 to 5000 | < 250 | Cc1cc([C@@H](C)Nc2ccc(Cl)nc2C(=O)NS(C)(=O)=O)c2nc(N3CCN(c4ncc(C#N)cc4C)CC3)n(C)c(=O)c2c1 [Compound 184, (R)-6-chloro-3-((1-(2-(4-(5-cyano-3-methylpyridin-2-yl)piperazin-1-yl)-3,6-dimethyl-4-oxo-3,4-dihydroquinazolin-8-yl)ethyl)amino)-N-(methylsulfonyl) picolinamide]
3 | 1000 to 5000 | < 250 | Cc1cc([C@@H](C)Nc2ccc(Cl)nc2C(=O)NS(C)(=O)=O)c2nc(N3Cc4cn(C5(C(F)(F)F)CC5)nc4C3)n(C)c(=O)c2c1 [Compound 185, (R)-6-chloro-3-((1-(3,6-dimethyl-4-oxo-2-(2-(1-(trifluoromethyl)cyclopropyl)-2,6-dihydropyrrolo[3,4-c]pyrazol-5(4H)-yl)-3,4-dihydroquinazolin-8-yl)ethyl)amino)-N-(methylsulfonyl) picolinamide]
4 | 1000 to 5000 | < 250 | Cc1cc([C@@H](C)Nc2ccc(Cl)nc2C(=O)NS(C)(=O)=O)c2nc(C3CCN(c4ccc(C#N)cn4)CC3)n(C)c(=O)c2c1 [Compound 186, (R)-6-chloro-3-((1-(2-(1-(5-cyanopyridin-2-yl)piperidin-4-yl)-3,6-dimethyl-4-oxo-3,4-dihydroquinazolin-8-yl)ethyl)amino)-N-(methylsulfonyl) picolinamide]
5 | 1000 to 5000 | < 250 | Cc1cc([C@@H](C)Nc2ccc(Cl)nc2C(=O)NS(C)(=O)=O)c2nc(N3CCN(c4ccn(C)n4)CC3)n(C)c(=O)c2c1 [Compound 187, (R)-6-chloro-3-((1-(3,6-dimethyl-2-(4-(1-methyl-1H-pyrazol-3-yl)piperazin-1-yl)-4-oxo-3,4-dihydroquinazolin-8-yl)ethyl)amino)-N-(methylsulfonyl) picolinamide]
6 | 1000 to 5000 | < 250 | Cc1cc([C@@H](C)Nc2ccc(Cl)nc2C(=O)NS(C)(=O)=O)c2nc(N3CCN(c4cnn(C)c4)CC3)n(C)c(=O)c2c1 [Compound 188, (R)-6-chloro-3-((1-(3,6-dimethyl-2-(4-(1-methyl-1H-pyrazol-4-yl)piperazin-1-yl)-4-oxo-3,4-dihydroquinazolin-8-yl)ethyl)amino)-N-(methylsulfonyl) picolinamide]
7 | ≥ 5000 | 250 to 500 | Cc1cc([C@@H](C)Nc2ccc(Cl)nc2C(=O)NS(C)(=O)=O)c2nc(N3Cc4cn(-c5ccccc5C)nc4C3)n(C)c(=O)c2c1 [Compound 189, (R)-6-chloro-3-((1-(3,6-dimethyl-4-oxo-2-(2-(o-tolyl)-2,6-dihydropyrrolo[3,4-c]pyrazol-5(4H)-yl)-3,4-dihydroquinazolin-8-yl)ethyl)amino)-N-(methylsulfonyl) picolinamide]
8 | 1000 to 5000 | < 250 | Cc1cc([C@@H](C)Nc2ccc(Cl)nc2C(=O)NS(C)(=O)=O)c2nc(N3CCN(c4ccc(C#N)cc4)CC3)n(C)c(=O)c2c1 [Compound 190, (R)-6-chloro-3-((1-(2-(4-(4-cyanophenyl)piperazin-1-yl)-3,6-dimethyl-4-oxo-3,4-dihydroquinazolin-8-yl)ethyl)amino)-N-(methylsulfonyl) picolinamide]
9 | ≥ 5000 | < 250 | Cc1cc([C@@H](C)Nc2ccc(Cl)nc2C(=O)NS(C)(=O)=O)c2nc(N3Cc4cnn(-c5ccccc5C)c4C3)n(C)c(=O)c2c1 [Compound 191, (R)-6-chloro-3-((1-(3,6-dimethyl-4-oxo-2-(1-(o-tolyl)-4,6-dihydropyrrolo[3,4-c]pyrazol-5(1H)-yl)-3,4-dihydroquinazolin-8-yl)ethyl)amino)-N-(methylsulfonyl) picolinamide]
10 | 1000 to 5000 | < 250 | Cc1cc([C@@H](C)Nc2ccc(Cl)nc2C(=O)NS(C)(=O)=O)c2nc(N3Cc4cn(-c5ccncc5)nc4C3)n(C)c(=O)c2c1 [Compound 192, (R)-6-chloro-3-((1-(3,6-dimethyl-4-oxo-2-(2-(pyridin-4-yl)-2,6-dihydropyrrolo[3,4-c]pyrazol-5(4H)-yl)-3,4-dihydroquinazolin-8-yl)ethyl)amino)-N-(methylsulfonyl) picolinamide]
11 | 1000 to 5000 | < 250 | Cc1cc([C@@H](C)Nc2ccc(Cl)nc2C(=O)NS(C)(=O)=O)c2nc(N3CCN(c4cnn(CC(F)(F)F)c4)CC3)n(C)c(=O)c2c1 [Compound 193, (R)-6-chloro-3-((1-(3,6-dimethyl-4-oxo-2-(4-(1-(2,2,2-trifluoroethyl)-1H-pyrazol-4-yl)piperazin-1-yl)-3,4-dihydroquinazolin-8-yl)ethyl)amino)-N-(methylsulfonyl) picolinamide]
12 | 1000 to 5000 | < 250 | Cc1cc([C@@H](C)Nc2ccc(Cl)nc2C(=O)NS(C)(=O)=O)c2nc(N3CCc4c(cnn4-c4ccccc4)C3)n(C)c(=O)c2c1 [Compound 195, (R)-6-chloro-3-((1-(3,6-dimethyl-4-oxo-2-(1-phenyl-1,4,6,7-tetrahydro-5H-pyrazolo[4,3-c]pyridin-5-yl)-3,4-dihydroquinazolin-8-yl)ethyl)amino)-N-(methylsulfonyl) picolinamide]
13 | 1000 to 5000 | < 250 | Cc1cc([C@@H](C)Nc2ccc(Cl)nc2C(=O)NS(C)(=O)=O)c2nc(N3CCN(c4ccc(C#N)cn4)[C@@H](C)C3)n(C)c(=O)c2c1 [Compound 196, 6-chloro-3-(((R)-1-(2-((S)-4-(5-cyanopyridin-2-yl)-3-methylpiperazin-1-yl)-3,6-dimethyl-4-oxo-3,4-dihydroquinazolin-8-yl)ethyl)amino)-N-(methylsulfonyl) picolinamide]
14 | 1000 to 5000 | < 250 | Cc1cc([C@@H](C)Nc2ccc(Cl)nc2C(=O)NS(C)(=O)=O)c2nc(N3CCC(n4cc(C)cn4)CC3)n(C)c(=O)c2c1 [Compound 197, (R)-6-chloro-3-((1-(3,6-dimethyl-2-(4-(4-methyl-1H-pyrazol-1-yl)piperidin-1-yl)-4-oxo-3,4-dihydroquinazolin-8-yl)ethyl)amino)-N-(methylsulfonyl) picolinamide]
15 | 1000 to 5000 | < 250 | Cc1cc([C@@H](C)Nc2ccc(Cl)nc2C(=O)NS(C)(=O)=O)c2nc(N3CCC(n4cc5ccccc5n4)CC3)n(C)c(=O)c2c1 [Compound 198, (R)-3-((1-(2-(4-(2H-indazol-2-yl)piperidin-1-yl)-3,6-dimethyl-4-oxo-3,4-dihydroquinazolin-8-yl)ethyl)amino)-6-chloro-N-(methylsulfonyl) picolinamide]
16 | 1000 to 5000 | < 250 | Cc1cc([C@@H](C)Nc2ccc(Cl)nc2C(=O)NS(C)(=O)=O)c2nc(N3CCC(n4cccn4)CC3)n(C)c(=O)c2c1 [Compound 199, (R)-3-((1-(2-(4-(1H-pyrazol-1-yl)piperidin-1-yl)-3,6-dimethyl-4-oxo-3,4-dihydroquinazolin-8-yl)ethyl)amino)-6-chloro-N-(methylsulfonyl) picolinamide]
17 | 1000 to 5000 | < 250 | Cc1cc([C@@H](C)Nc2ccc(Cl)nc2C(=O)NS(C)(=O)=O)c2nc(N3CCN(c4ccc(C#N)cn4)[C@H](C)C3)n(C)c(=O)c2c1 [Compound 200, 6-chloro-3-(((R)-1-(2-((R)-4-(5-cyanopyridin-2-yl)-3-methylpiperazin-1-yl)-3,6-dimethyl-4-oxo-3,4-dihydroquinazolin-8-yl)ethyl)amino)-N-(methylsulfonyl) picolinamide]
18 | 1000 to 5000 | < 250 | Cc1cc([C@@H](C)Nc2ccc(Cl)nc2C(=O)NS(C)(=O)=O)c2nc(N3C[C@@H]4C[C@H]3CN4c3cnn(C)c3)n(C)c(=O)c2c1 [Compound 201, 6-chloro-3-(((R)-1-(3,6-dimethyl-2-((1S,4S)-5-(1-methyl-1H-pyrazol-4-yl)-2,5-diazabicyclo[2.2.1]heptan-2-yl)-4-oxo-3,4-dihydroquinazolin-8-yl)ethyl)amino)-N-(methylsulfonyl) picolinamide]
19 | 1000 to 5000 | < 250 | Cc1cc([C@@H](C)Nc2ccc(Cl)nc2C(=O)NS(C)(=O)=O)c2nc(N3CC[C@@H](Oc4ccc(F)cc4)C3)n(C)c(=O)c2c1 [Compound 203, 6-chloro-3-(((R)-1-(2-((R)-3-(4-fluorophenoxy)pyrrolidin-1-yl)-3,6-dimethyl-4-oxo-3,4-dihydroquinazolin-8-yl)ethyl)amino)-N-(methylsulfonyl) picolinamide]
20 | 1000 to 5000 | < 250 | Cc1cc([C@@H](C)Nc2ccc(Cl)nc2C(=O)NS(C)(=O)=O)c2nc(N3CCN(c4cc[nH]n4)CC3)n(C)c(=O)c2c1 [Compound 204, (R)-3-((1-(2-(4-(1H-pyrazol-3-yl)piperazin-1-yl)-3,6-dimethyl-4-oxo-3,4-dihydroquinazolin-8-yl)ethyl)amino)-6-chloro-N-(methylsulfonyl) picolinamide]
21 | 1000 to 5000 | < 250 | Cc1cc([C@@H](C)Nc2ccc(Cl)nc2C(=O)NS(C)(=O)=O)c2nc(N3CCN(c4ccc(CC#N)cn4)CC3)n(C)c(=O)c2c1 [Compound 206, (R)-6-chloro-3-((1-(2-(4-(5-(cyanomethyl)pyridin-2-yl)piperazin-1-yl)-3,6-dimethyl-4-oxo-3,4-dihydroquinazolin-8-yl)ethyl)amino)-N-(methylsulfonyl) picolinamide]
